This note sets out measurements from US20240043386A1, “Modulators of the Cystic Fibrosis Transmembrane Conductance Regulator Protein and Methods of Use” (AbbVie Global Enterprises Ltd., priority 2021, published 2024).

One assay concerns the target T1, F508del/F508del CFTR (Homo sapiens, UniProt P13569, DEL508-508).
T1 construct: cells isolated from CF patients with the homozygous mutation; endogenous in cells; host or cells: primary human bronchial epithelial (hBE) cells from CF patients homozygous for F508del
Description: Trans-Epithelial Current Clamp (TECC) assay using primary human bronchial epithelial cells. The format is cell-based. The conditions noted are these: for Emax (% Dual): maximum percent activity relative to positive control (co-corrector 0.15 μM + potentiator 0.45 μM = 100%), primary hBE cells F508del/F508del; for pEC50: primary hBE cells homozygous F508del/F508del, test C2 corrector with co-corrector and potentiator, 18-24 hours at 37° C., equivalent CFTR current (IEQ)/AUC. An outline of the steps:
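Readout is the equivalent CFTR current (IEQ, from offset-corrected VT and RT) plus AUC from forskolin peak to bumetanide addition, recorded on TECC-24 at 36.5° C. Beforehand, homozygous F508del hBE cultures received correctors with co-corrector and potentiator basolaterally for 18-24 h at 37° C.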

The target in a further assay is T2, F508delCFTR (Homo sapiens, UniProt P13569, DEL508-508).
T2 construct: expressed in transfected cells; host or cells: CFBE41o- human lung-derived epithelial cell line, doxycycline-inducible expression
Description: Cell Surface Expression-Horse Radish Peroxidase (CSE-HRP) assay in CFBE41o-F508delCFTR-HRP cells. The conditions noted are these: for pEC50: CFBE41o-F508delCFTR-HRP cells, 18-24 hours at 33° C., luminescence; for Maximum % activity (without co-corrector): normalized to on-plate positive control corrector (2 μM). The format is cell-based. An outline of the steps:
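Test compounds were tested alone or alongside a co-corrector (2 μM), 8-point 3-fold series from 20 or 30 μM, for 18–24 h at 33 °C on doxycycline-induced CFBE41o-F508delCFTR-HRP cells. After washing, luminol luminescence reported cell-surface HRP-tagged CFTR, normalized to the positive control (% activity). EC50 was fitted with a variable Hill slope sigmoid from triplicate plates; Z′ >0.5 required.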

Where [1] appears, read: with co-corrector (2 μM), read-out: EC50 (with co-corrector).
[2] abbreviates: without co-corrector, read-out: EC50 (without co-corrector).

pEC50: −log10 of the molar value. Read-outs that look alike come from different tables or passages of the source.

T2 sequence (P13569 with tags, fused parts or gaps DEL508-508): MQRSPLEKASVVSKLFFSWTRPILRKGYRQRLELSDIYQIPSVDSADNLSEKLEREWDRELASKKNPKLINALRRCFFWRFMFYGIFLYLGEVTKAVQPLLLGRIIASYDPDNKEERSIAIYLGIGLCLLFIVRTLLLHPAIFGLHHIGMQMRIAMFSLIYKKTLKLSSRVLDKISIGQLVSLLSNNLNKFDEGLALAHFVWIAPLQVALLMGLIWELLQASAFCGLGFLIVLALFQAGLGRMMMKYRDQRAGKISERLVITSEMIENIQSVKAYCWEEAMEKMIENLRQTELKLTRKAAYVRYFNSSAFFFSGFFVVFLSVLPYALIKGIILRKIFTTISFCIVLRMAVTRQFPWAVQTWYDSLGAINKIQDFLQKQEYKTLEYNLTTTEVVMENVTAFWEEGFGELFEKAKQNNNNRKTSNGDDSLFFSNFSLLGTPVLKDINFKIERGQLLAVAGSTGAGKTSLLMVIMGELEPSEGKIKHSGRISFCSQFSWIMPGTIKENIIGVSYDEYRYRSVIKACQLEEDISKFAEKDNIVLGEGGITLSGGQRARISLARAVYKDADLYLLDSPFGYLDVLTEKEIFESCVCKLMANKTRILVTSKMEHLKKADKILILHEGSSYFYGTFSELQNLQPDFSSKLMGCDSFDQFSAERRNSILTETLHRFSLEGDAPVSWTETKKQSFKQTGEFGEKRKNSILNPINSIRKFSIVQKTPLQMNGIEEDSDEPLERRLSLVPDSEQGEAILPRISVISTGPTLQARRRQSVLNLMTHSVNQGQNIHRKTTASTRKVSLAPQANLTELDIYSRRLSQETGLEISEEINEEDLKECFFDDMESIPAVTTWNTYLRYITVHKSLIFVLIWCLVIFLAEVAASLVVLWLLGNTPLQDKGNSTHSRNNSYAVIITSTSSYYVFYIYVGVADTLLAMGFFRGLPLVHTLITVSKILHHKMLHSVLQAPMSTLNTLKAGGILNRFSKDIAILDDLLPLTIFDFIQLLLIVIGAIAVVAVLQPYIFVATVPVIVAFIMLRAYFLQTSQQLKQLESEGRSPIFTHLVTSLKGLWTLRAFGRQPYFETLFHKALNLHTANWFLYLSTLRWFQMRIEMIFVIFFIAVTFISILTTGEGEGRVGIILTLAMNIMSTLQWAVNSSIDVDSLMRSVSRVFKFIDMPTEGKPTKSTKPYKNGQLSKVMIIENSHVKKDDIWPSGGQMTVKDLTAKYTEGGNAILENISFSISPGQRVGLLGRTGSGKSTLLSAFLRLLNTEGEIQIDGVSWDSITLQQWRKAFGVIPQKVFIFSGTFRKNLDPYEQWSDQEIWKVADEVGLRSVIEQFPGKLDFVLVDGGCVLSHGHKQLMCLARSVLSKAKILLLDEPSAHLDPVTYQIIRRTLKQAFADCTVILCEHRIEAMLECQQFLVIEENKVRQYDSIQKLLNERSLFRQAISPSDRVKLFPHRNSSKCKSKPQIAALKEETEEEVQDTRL
T1 sequence (P13569 with tags, fused parts or gaps DEL508-508): as above

For orientation: pEC50 means −log10 of the EC50, conventionally taken in molar units. In the case of `COc1ccc(C)cc1[C@@]1(C(=O)NS(=O)(=O)c2cccc3nc(C)ccc23)C[C@H]1c1cccc(F)c1` (single isomer, unassigned) [Example 20], the “Emax (% Dual)” value at F508del/F508del CFTR amounted to 250 % Dual. For the same compound, the pEC50 on F508del/F508del CFTR is 9.00; on F508delCFTR (setting [1]), 6.69; at F508delCFTR (setting [2]) it was 6.61. Further, on F508delCFTR (without co-corrector, 2 µM), the “Maximum % activity (without co-corrector)” value stood at 716%.
For `COc1cncc([C@@H]2C[C@]2(C(=O)NS(=O)(=O)c2cccc3nc(C)ccc23)c2cc(C)ccc2OC)c1` (racemic) [Example 41, rac-(1r,2s)-1-(2-methoxy-5-methylphenyl)-2-(5-methoxypyridin-3-yl)-N-(2-methylquinoline-5-sulfonyl)cyclopropane-1-carboxamide], the “Emax (% Dual)” value on F508del/F508del CFTR is given as 244 % Dual. The pEC50 on F508del/F508del CFTR was 6.96; on F508delCFTR (setting [1]), 5.75; at F508delCFTR (setting [2]) it was 5.53. In addition, the “Maximum % activity (without co-corrector)” value at F508delCFTR (without co-corrector) is given as 497%.
For the compound `COCc1cccc([C@H]2C[C@@]2(C(=O)NS(=O)(=O)c2cccc3nc(C)ccc23)c2cc(C)ccc2OC)n1` [Example 90, (1S,2S)-1-(2-methoxy-5-methylphenyl)-2-[6-(methoxymethyl)pyridin-2-yl]-N-(2-methylquinoline-5-sulfonyl)cyclopropane-1-carboxamide], the “Emax (% Dual)” value at F508del/F508del CFTR worked out at 348 % Dual. In addition, the negative-log EC50 (pEC50) at F508del/F508del CFTR was 7.39; at F508delCFTR (setting [1]), 6.05; at F508delCFTR (setting [2]), 5.76. Also, on F508delCFTR (without co-corrector), the “Maximum % activity (without co-corrector)” value was determined as 812%.
For the compound `COc1ccc(C)cc1[C@]1(C(=O)NS(=O)(=O)c2cccc3nc(C)ccc23)C[C@@H]1c1cnc(OC)c(F)c1` [Example 76, (1S,2R)-2-(5-fluoro-6-methoxypyridin-3-yl)-1-(2-methoxy-5-methylphenyl)-N-(2-methylquinoline-5-sulfonyl)cyclopropane-1-carboxamide], the “Emax (% Dual)” value on F508del/F508del CFTR was 269 % Dual. Moreover, the pEC50 on F508del/F508del CFTR was 8.62; on F508delCFTR (setting [1]), 6.00; at F508delCFTR (setting [2]), 5.67.
`COc1ccc(C)cc1[C@]1(C(=O)NS(=O)(=O)c2cccc3nc(C)ccc23)C[C@@H]1c1cnc(OC)c(C)c1` [Example 103, (1S,2R)-1-(2-methoxy-5-methylphenyl)-2-(6-methoxy-5-methylpyridin-3-yl)-N-(2-methylquinoline-5-sulfonyl)cyclopropane-1-carboxamide]: the “Emax (% Dual)” value at F508del/F508del CFTR worked out at 266 % Dual. The values for the pEC50 at F508del/F508del CFTR, at F508delCFTR (setting [1]) and at F508delCFTR (setting [2]) were 8.74, 6.23 and 6.15, respectively. At F508delCFTR (without co-corrector), the “Maximum % activity (without co-corrector)” value is given as 800%.
Consider `COc1ccc(C)cc1[C@]1(C(=O)NS(=O)(=O)c2cccc3nc(C)ccc23)C[C@@H]1c1cncc(F)c1` (single isomer, unassigned) [Example 54], for which, at F508del/F508del CFTR, the “Emax (% Dual)” value is 355 % Dual. In addition, the negative logarithm of the EC50 (pEC50) at F508del/F508del CFTR was 7.29; at F508delCFTR (setting [1]), 5.70; on F508delCFTR (setting [2]), 5.53. For the same compound, the “Maximum % activity (without co-corrector)” value at F508delCFTR (without co-corrector) was 890%.
For the compound `COc1ccc(C)cc1[C@@]1(C(=O)NS(=O)(=O)c2cccc3nc(C)ccc23)C[C@H]1c1ccc(C)nc1OC` (single isomer, unassigned) [Example 85], at F508del/F508del CFTR, the “Emax (% Dual)” value amounted to 206 % Dual. The results for the pEC50 at F508del/F508del CFTR, at F508delCFTR (setting [1]) and at F508delCFTR (setting [2]) were 7.61, 6.09 and 6.00, respectively. The “Maximum % activity (without co-corrector)” value on F508delCFTR (without co-corrector) is 786%.
The like results for `COc1ccc(C)cc1[C@]1(C(=O)NS(=O)(=O)c2cccc3nc(C)ccc23)C[C@@H]1c1cncc(C)n1` (single isomer, unassigned) [Example 46] were, in that order, 364 % Dual, 7.52, 5.82, 5.63 and 783%.
